Measurements published in PMC12122562, “Phase 1 studies of the indenoisoquinolines LMP776 and LMP744 in patients with solid tumors and lymphomas” (Cancer Chemotherapy and Pharmacology, 2025).

Legend:
[1] = tested on: advanced, refractory solid tumors or lymphomas; experiment: Phase 1 trial of LMP744: tumor response (RECIST v1.1), cycles completed; assay type: in vivo, human
Protocol: Tumor responses were evaluated by serial CT scans according to RECIST v1.1 criteria. CT scans were performed every other cycle during the first year, then every 3 cycles after the first year. Toxicities associated with LMP776 were evaluated according to criteria specified in CTCAE version 4.0; toxicities associated with LMP744 were evaluated according to the criteria specified in CTCAE version 4.03 (on or before March 31, 2018) or version 5.0 (on or after April 1, 2018). Criteria for all versions can be found at https://ctep.cancer.gov/protocolDevelopment/electronic_applications/ctc.htm. Any patient who received a dose of either agent was considered eligible for toxicity evaluation.

[2] = tested on: cCasp3; experiment: IFA of paired tumor biopsies: cCasp3 co-localized with γH2AX (apoptosis); assay type: in vivo, human; details: patient 29, MTD, C1D2
Source text: The LMP744 protocol collected pre-treatment (baseline) and on-treatment paired biopsies from patients in the expansion cohort. Core needle tumor biopsies (18-gauge) were collected and flash-frozen at point of collection per NCI SOPs (https://dctd.cancer.gov/ResearchResources/biomarkers/docs/par/SOP340507_Biopsy_Frozen.pdf) as described to preserve labile post-translational modifications such as phosphorylation. Biopsy pairs were thawed in formalin, fixed in paraffin embedded together with control tissues following NCI SOP340550 (https://dctd.cancer.gov/ResearchResources/biomarkers/DDR3/SOP340550_Biopsy_Section_Testis_Jejunum_Controls.pdf). TOP1 and TOP1cc were measured with a cocktail containing custom-conjugated rabbit monoclonal antibody anti-TOP1-DIG (Abcam, EPR5376 (2)) and mouse monoclonal antibody anti-TOP1cc (clone 1.1A [34, 35], EMD Millipore) that were detected with reporter secondary antibodies AlexaFluor-647 IgG fraction monoclonal mouse anti-digoxin (Jackson ImmunoResearch) and goat/anti-mouse AlexaFluor-488, respectively. Phosphorylated KAP1 (pKAP1, phosphorylated at S824) was measured using custom-conjugated pKAP1-pS824-DNP (Abcam, EPR5248) and detected with AlexaFluor-488 conjugated with anti-dinitrophenyl-KLH rabbit IgG Antibody Fraction (DNP-488, ThermoFisher). […]

[3] = target: T1, TOP1 (Homo sapiens, UniProt P11387); experiment: qIF of paired tumor biopsies: nuclear TOP1; assay type: in vivo
T1 construct: paired pre-treatment and on-treatment tumor biopsies (C1D2, 2–4 h after dosing) from 6 patients receiving LMP744 at the MTD; from tissue; host or cells: core needle tumor biopsies from patients (LMP744 expansion cohort)
T1 sequence (P11387 1-765): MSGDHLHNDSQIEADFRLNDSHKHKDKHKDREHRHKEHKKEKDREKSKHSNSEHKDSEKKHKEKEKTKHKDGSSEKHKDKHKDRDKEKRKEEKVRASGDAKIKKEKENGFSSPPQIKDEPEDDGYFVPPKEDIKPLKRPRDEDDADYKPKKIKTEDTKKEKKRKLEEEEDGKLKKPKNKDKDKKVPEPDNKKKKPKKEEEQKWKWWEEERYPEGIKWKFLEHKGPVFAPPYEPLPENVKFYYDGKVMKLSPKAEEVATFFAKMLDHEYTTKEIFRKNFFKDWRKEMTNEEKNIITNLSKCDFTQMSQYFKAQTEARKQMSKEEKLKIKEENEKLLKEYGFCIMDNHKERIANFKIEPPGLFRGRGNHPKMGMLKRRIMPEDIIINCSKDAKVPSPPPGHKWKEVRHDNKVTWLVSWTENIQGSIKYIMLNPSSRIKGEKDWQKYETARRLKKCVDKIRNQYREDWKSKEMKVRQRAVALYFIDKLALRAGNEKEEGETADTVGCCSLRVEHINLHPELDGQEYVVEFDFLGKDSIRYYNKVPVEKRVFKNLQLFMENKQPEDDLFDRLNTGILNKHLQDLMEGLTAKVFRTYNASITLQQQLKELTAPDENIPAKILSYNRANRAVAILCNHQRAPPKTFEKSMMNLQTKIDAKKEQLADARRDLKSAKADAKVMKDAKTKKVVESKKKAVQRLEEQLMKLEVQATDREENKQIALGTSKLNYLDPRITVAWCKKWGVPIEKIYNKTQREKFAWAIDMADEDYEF
Source text: The LMP744 protocol collected pre-treatment (baseline) and on-treatment paired biopsies from patients in the expansion cohort. Core needle tumor biopsies (18-gauge) were collected and flash-frozen at point of collection per NCI SOPs (https://dctd.cancer.gov/ResearchResources/biomarkers/docs/par/SOP340507_Biopsy_Frozen.pdf) as described to preserve labile post-translational modifications such as phosphorylation. Biopsy pairs were thawed in formalin, fixed in paraffin embedded together with control tissues following NCI SOP340550 (https://dctd.cancer.gov/ResearchResources/biomarkers/DDR3/SOP340550_Biopsy_Section_Testis_Jejunum_Controls.pdf). TOP1 and TOP1cc were measured with a cocktail containing custom-conjugated rabbit monoclonal antibody anti-TOP1-DIG (Abcam, EPR5376 (2)) and mouse monoclonal antibody anti-TOP1cc (clone 1.1A [34, 35], EMD Millipore) that were detected with reporter secondary antibodies AlexaFluor-647 IgG fraction monoclonal mouse anti-digoxin (Jackson ImmunoResearch) and goat/anti-mouse AlexaFluor-488, respectively. Phosphorylated KAP1 (pKAP1, phosphorylated at S824) was measured using custom-conjugated pKAP1-pS824-DNP (Abcam, EPR5248) and detected with AlexaFluor-488 conjugated with anti-dinitrophenyl-KLH rabbit IgG Antibody Fraction (DNP-488, ThermoFisher). Validated immunofluorescence assays (IFAs) were used to measure levels of γH2AX, phosphorylated NBS1 (pNBS1, phosphorylated at Ser343), and RAD51 [15, 17, 19, 29]. Antibodies in all clinical immunofluorescence staining protocols were used as a cocktail with β-catenin as a tumor marker as previously described. After staining with primary antibodies, washing, and staining with secondary antibodies, slides were rinsed in 1X PBS and blotted to remove excess liquid. Slides were cured overnight with Prolong Gold Antifade Reagent (Invitrogen) in the dark and imaged the following day. Confocal images (12-bit) were acquired at 20X using a Nikon A1 scan head on a Nikon 90i microscope at 0.24 µm/pixel to measure nuclear TOP1 and nuclear foci of TOP1cc and RAD51. […] TOP1, γH2AX, pNBS1, and pKAP1 were measured as the percentage of DAPI-stained tumor cell nuclear area that was positive for the biomarker (% NAP); RAD51 [19] and TOP1cc was measured as a function of the percentage of nuclei with ≥ 5 foci (RAD51) or ≥ 19 foci (TOP1cc). Apoptosis was measured using a validated IFA of tumor cells positive for both cCasp3 blebbing in the cytoplasm and γH2AX in the nucleus. Anti-SLFN11 rabbit monoclonal antibody (Cell Signaling Technology, clone D8W1B) was detected by immunohistochemistry (IHC) using Bond Polymer Detection kit (Leica) and scanned in 20X widefield Aperio (Leica), and the distribution of staining intensity of tumor cell nuclei graded as 0, 1 + , 2 + or 3 + was converted into an H-score. […]

COc1cc2c3c(n(CCCNCCO)c(=O)c2cc1OC)-c1cc2c(cc1C3=O)OCO2 [LMP744]
Overall response rate ([1]; 35 patients): 3%
Patients with a partial response (one confirmed) ([1]; in vivo): Two
Patients with stable disease for ≥ 3 cycles ([1]; in vivo): 12
Cycles of treatment completed with SD ([1]; patient 10, low-grade appendiceal mucinous neoplasm): 31 cycles
Co-localized cytoplasmic cCASP3 [2]: increase in co-localized cytoplasmic cCASP3
Nuclear TOP1, change in the biopsy cohort ([3]; 6 patients at MTD, P = 0.1448): no significant changes
Nuclear TOP1 ([3]; patient 29, MTD, C1D2): neither biomarker changed with treatment
Nuclear TOP1 ([3]; patient 31, MTD, C1D2): decreased nearly to background levels
Decrease of nuclear TOP1 ([3]; patient 33, MTD, C1D2): 57%
